In PubChem BioAssay AID1918941 (Molecular Pharmacology Branch, DTP, NCI, 2023):

Tested on: SW 1271 complex spheroids, viability
Assay: Anticancer human tumor SW 1271 cell line growth inhibition [LSD1];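 note: spheroids exposed to agents for 7 days before luminescence read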;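 for viability, T/C: 100% = DMSO vehicle control viability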
Conditions: for IC50: curve of first compound; for viability, T/C: stronger effect = lower value
Method in brief: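 Drug combinations with the LSD1 inhibitor iadademstat tested on tumor cells co-cultured as spheroids with endothelial cells and mesenchymal stem cells. Concentrations descended in half-log increments from clinical Cmax or 10 microM.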

[1] = second compound 0.1 µM, first compound 0.000316 µM
[2] = second compound 0.1 µM, first compound 0.001 µM
[3] = second compound 0.1 µM, first compound 0.00316 µM
[4] = second compound 0.1 µM, first compound 0.01 µM
[5] = second compound 0.1 µM, first compound 0.0316 µM
[6] = second compound 0.1 µM, first compound 0.1 µM
[7] = second compound 0.316 µM, first compound 0.000316 µM
[8] = second compound 0.316 µM, first compound 0.001 µM
[9] = second compound 0.316 µM, first compound 0.00316 µM
[10] = second compound 0.316 µM, first compound 0.01 µM
[11] = second compound 0.316 µM, first compound 0.0316 µM
[12] = second compound 0.316 µM, first compound 0.1 µM
[13] = second compound 1 µM, first compound 0.000316 µM
[14] = second compound 1 µM, first compound 0.001 µM
[15] = second compound 1 µM, first compound 0.00316 µM
[16] = second compound 1 µM, first compound 0.01 µM
[17] = second compound 1 µM, first compound 0.0316 µM
[18] = second compound 1 µM, first compound 0.1 µM
[19] = second compound 3.16 µM, first compound 0.000316 µM
[20] = second compound 3.16 µM, first compound 0.001 µM
[21] = second compound 3.16 µM, first compound 0.00316 µM
[22] = second compound 3.16 µM, first compound 0.01 µM
[23] = second compound 3.16 µM, first compound 0.0316 µM
[24] = second compound 3.16 µM, first compound 0.1 µM
[25] = second compound 10 µM, first compound 0.000316 µM
[26] = second compound 10 µM, first compound 0.001 µM
[27] = second compound 10 µM, first compound 0.00316 µM
[28] = second compound 10 µM, first compound 0.01 µM
[29] = second compound 10 µM, first compound 0.0316 µM
[30] = second compound 10 µM, first compound 0.1 µM
[31] = second compound 0.1 µM, first compound 0.00949 µM
[32] = second compound 0.1 µM, first compound 0.03 µM
[33] = second compound 0.1 µM, first compound 0.0949 µM
[34] = second compound 0.1 µM, first compound 0.3 µM
[35] = second compound 0.316 µM, first compound 0.00949 µM
[36] = second compound 0.316 µM, first compound 0.03 µM
[37] = second compound 0.316 µM, first compound 0.0949 µM
[38] = second compound 0.316 µM, first compound 0.3 µM
[39] = second compound 1 µM, first compound 0.00949 µM
[40] = second compound 1 µM, first compound 0.03 µM
[41] = second compound 1 µM, first compound 0.0949 µM
[42] = second compound 1 µM, first compound 0.3 µM
[43] = second compound 3.16 µM, first compound 0.00949 µM
[44] = second compound 3.16 µM, first compound 0.03 µM
[45] = second compound 3.16 µM, first compound 0.0949 µM
[46] = second compound 3.16 µM, first compound 0.3 µM
[47] = second compound 10 µM, first compound 0.00949 µM
[48] = second compound 10 µM, first compound 0.03 µM
[49] = second compound 10 µM, first compound 0.0949 µM
[50] = second compound 10 µM, first compound 0.3 µM

CC(C)CC(NC(=O)C(Cc1ccccc1)NC(=O)c1cnccn1)B(O)O (stereo not given) + NC1CC1c1ccc(-c2cccc(O)c2)cc1
IC50 (second compound 0.1 µM): < 0.316 nM | IC50 (second compound 0.316 µM): < 0.316 nM | IC50 (second compound 1 µM): < 0.316 nM | IC50 (second compound 3.16 µM): < 0.316 nM | IC50 (second compound 10 µM): < 0.316 nM | viability, T/C [1]: 2.9% | viability, T/C [2]: 0.1% | viability, T/C [3]: 0.1% | viability, T/C [4]: 0.28% | viability, T/C [5]: 0.2% | viability, T/C [6]: 0.25% | viability, T/C [7]: 3.44% | viability, T/C [8]: 0.11% | viability, T/C [9]: 0.09% | viability, T/C [10]: 1.18% | viability, T/C [11]: 0.59% | viability, T/C [12]: 0.2% | viability, T/C [13]: 2.62% | viability, T/C [14]: 0.2% | viability, T/C [15]: 0.37% | viability, T/C [16]: 4.1% | viability, T/C [17]: 0.05% | viability, T/C [18]: 0.13% | viability, T/C [19]: 2.05% | viability, T/C [20]: 0.64% | viability, T/C [21]: 0.12% | viability, T/C [22]: 4.7% | viability, T/C [23]: 0.14% | viability, T/C [24]: 0.19% | viability, T/C [25]: 6.62% | viability, T/C [26]: 0.5% | viability, T/C [27]: 0.15% | viability, T/C [28]: 0.72% | viability, T/C [29]: 0.12% | viability, T/C [30]: 0.19%

CC(C)CC(NC(=O)CNC(=O)c1cc(Cl)ccc1Cl)B1OC(=O)CC(CC(=O)O)(C(=O)O)O1 (stereo not given) + NC1CC1c1ccc(-c2cccc(O)c2)cc1
IC50 (second compound 0.1 µM): 4.86 nM | IC50 (second compound 0.316 µM): 4.67 nM | IC50 (second compound 1 µM): 4.38 nM | IC50 (second compound 3.16 µM): 3.94 nM | IC50 (second compound 10 µM): 4.36 nM | viability, T/C [1]: 86.8% | viability, T/C [2]: 83.1% | viability, T/C [3]: 76% | viability, T/C [4]: 6.29% | viability, T/C [5]: 0.38% | viability, T/C [6]: 0.5% | viability, T/C [7]: 83.1% | viability, T/C [8]: 85.3% | viability, T/C [9]: 72.1% | viability, T/C [10]: 6.64% | viability, T/C [11]: 0.44% | viability, T/C [12]: 0.17% | viability, T/C [13]: 75.1% | viability, T/C [14]: 76.9% | viability, T/C [15]: 67.8% | viability, T/C [16]: 4.77% | viability, T/C [17]: 0.26% | viability, T/C [18]: 0.21% | viability, T/C [19]: 73.1% | viability, T/C [20]: 72.1% | viability, T/C [21]: 61% | viability, T/C [22]: 3.44% | viability, T/C [23]: 3.87% | viability, T/C [24]: 0.21% | viability, T/C [25]: 66.1% | viability, T/C [26]: 67.6% | viability, T/C [27]: 70.9% | viability, T/C [28]: 3.06% | viability, T/C [29]: 0.15% | viability, T/C [30]: 0.18%

CCc1c2c(nc3ccc(O)cc13)-c1cc3c(c(=O)n1C2)COC(=O)[C@]3(O)CC + NC1CC1c1ccc(-c2cccc(O)c2)cc1
IC50 (second compound 0.1 µM): < 0.949 nM | IC50 (second compound 0.316 µM): 1.07 nM | IC50 (second compound 1 µM): < 0.949 nM | IC50 (second compound 3.16 µM): < 0.949 nM | IC50 (second compound 10 µM): 2.83 nM | viability, T/C (second compound 0.1 µM, first compound 0.000949 µM): 48.1% | viability, T/C (second compound 0.1 µM, first compound 0.003 µM): 46% | viability, T/C [31]: 26.5% | viability, T/C [32]: 8.18% | viability, T/C [33]: 8.27% | viability, T/C [34]: 3.92% | viability, T/C (second compound 0.316 µM, first compound 0.000949 µM): 50.5% | viability, T/C (second compound 0.316 µM, first compound 0.003 µM): 45.4% | viability, T/C [35]: 25.9% | viability, T/C [36]: 10.3% | viability, T/C [37]: 8.68% | viability, T/C [38]: 6.46% | viability, T/C (second compound 1 µM, first compound 0.000949 µM): 49.4% | viability, T/C (second compound 1 µM, first compound 0.003 µM): 43% | viability, T/C [39]: 27.4% | viability, T/C [40]: 9.38% | viability, T/C [41]: 5.98% | viability, T/C [42]: 3.79% | viability, T/C (second compound 3.16 µM, first compound 0.000949 µM): 48.2% | viability, T/C (second compound 3.16 µM, first compound 0.003 µM): 50.2% | viability, T/C [43]: 26.7% | viability, T/C [44]: 9.15% | viability, T/C [45]: 5.19% | viability, T/C [46]: 5.82% | viability, T/C (second compound 10 µM, first compound 0.000949 µM): 56.6% | viability, T/C (second compound 10 µM, first compound 0.003 µM): 48.5% | viability, T/C [47]: 30.1% | viability, T/C [48]: 9.23% | viability, T/C [49]: 7.28% | viability, T/C [50]: 5.03%

Nc1ccccc1NC(=O)c1ccc(CNC(=O)OCc2cccnc2)cc1 + NC1CC1c1ccc(-c2cccc(O)c2)cc1
IC50 (second compound 0.1 µM): 106 nM | IC50 (second compound 0.316 µM): 120 nM | IC50 (second compound 1 µM): 62.6 nM | IC50 (second compound 3.16 µM): 76.2 nM | IC50 (second compound 10 µM): 38.1 nM | viability, T/C [31]: 85.6% | viability, T/C [32]: 65.7% | viability, T/C [33]: 56.7% | viability, T/C [34]: 29.6% | viability, T/C (second compound 0.1 µM, first compound 0.949 µM): 8.17% | viability, T/C (second compound 0.1 µM, first compound 3 µM): 3.78% | viability, T/C [35]: 89.2% | viability, T/C [36]: 75.3% | viability, T/C [37]: 57.3% | viability, T/C [38]: 27.7% | viability, T/C (second compound 0.316 µM, first compound 0.949 µM): 6.71% | viability, T/C (second compound 0.316 µM, first compound 3 µM): 4.39% | viability, T/C [39]: 94.3% | viability, T/C [40]: 59.9% | viability, T/C [41]: 46.6% | viability, T/C [42]: 26.6% | viability, T/C (second compound 1 µM, first compound 0.949 µM): 7.28% | viability, T/C (second compound 1 µM, first compound 3 µM): 5.61% | viability, T/C [43]: 81.3% | viability, T/C [44]: 69.7% | viability, T/C [45]: 40.5% | viability, T/C [46]: 32.4% | viability, T/C (second compound 3.16 µM, first compound 0.949 µM): 10% | viability, T/C (second compound 3.16 µM, first compound 3 µM): 4.69% | viability, T/C [47]: 66.7% | viability, T/C [48]: 51.9% | viability, T/C [49]: 38.6% | viability, T/C [50]: 29.4% | viability, T/C (second compound 10 µM, first compound 0.949 µM): 11.7% | viability, T/C (second compound 10 µM, first compound 3 µM): 6.45%

O=C(c1cc(Cc2n[nH]c(=O)c3ccccc23)ccc1F)N1CCN(C(=O)C2CC2)CC1 + NC1CC1c1ccc(-c2cccc(O)c2)cc1
IC50 (second compound 0.1 µM): 8950 nM | IC50 (second compound 0.316 µM): 5660 nM | IC50 (second compound 1 µM): 6290 nM | IC50 (second compound 3.16 µM): 3740 nM | IC50 (second compound 10 µM): > 10000 nM | viability, T/C [5]: 78.1% | viability, T/C [6]: 87% | viability, T/C (second compound 0.1 µM, first compound 0.316 µM): 92.7% | viability, T/C (second compound 0.1 µM, first compound 1 µM): 72.9% | viability, T/C (second compound 0.1 µM, first compound 3.16 µM): 61.4% | viability, T/C (second compound 0.1 µM, first compound 10 µM): 48.2% | viability, T/C [11]: 84.5% | viability, T/C [12]: 76.1% | viability, T/C (second compound 0.316 µM, first compound 0.316 µM): 78% | viability, T/C (second compound 0.316 µM, first compound 1 µM): 67.5% | viability, T/C (second compound 0.316 µM, first compound 3.16 µM): 54.9% | viability, T/C (second compound 0.316 µM, first compound 10 µM): 44.1% | viability, T/C [17]: 81.4% | viability, T/C [18]: 74.4% | viability, T/C (second compound 1 µM, first compound 0.316 µM): 70% | viability, T/C (second compound 1 µM, first compound 1 µM): 65.1% | viability, T/C (second compound 1 µM, first compound 3.16 µM): 56.8% | viability, T/C (second compound 1 µM, first compound 10 µM): 45.4% | viability, T/C [23]: 72.1% | viability, T/C [24]: 63.4% | viability, T/C (second compound 3.16 µM, first compound 0.316 µM): 68.3% | viability, T/C (second compound 3.16 µM, first compound 1 µM): 58.4% | viability, T/C (second compound 3.16 µM, first compound 3.16 µM): 52.9% | viability, T/C (second compound 3.16 µM, first compound 10 µM): 38.9% | viability, T/C [29]: 66.9% | viability, T/C [30]: 66.8% | viability, T/C (second compound 10 µM, first compound 0.316 µM): 63% | viability, T/C (second compound 10 µM, first compound 1 µM): 57.9% | viability, T/C (second compound 10 µM, first compound 3.16 µM): 52.7% | viability, T/C (second compound 10 µM, first compound 10 µM): 51.3%
